Measured values taken from ChEMBL document CHEMBL1800064, “Biaryl ethers as potent allosteric inhibitors of reverse transcriptase and its key mutant viruses: aryl substituted pyrazole as a surrogate for the pyrazolopyridine motif” (Bioorg Med Chem Lett, 2010).

What was measured:
[1] = target: Human immunodeficiency virus type 1 reverse transcriptase (Human immunodeficiency virus 1, UniProt Q72547, K103N); experiment: Inhibition of HIV1 reverse transcriptase K103N mutant by SPA assay
[2] = tested on: Human immunodeficiency virus 1; experiment: Antiviral activity against HIV1 R8 harboring wild type reverse transcriptase infected in human MT4 cells assessed as inhibition of viral spread in presence of 10% fetal bovine serum; type: functional; details: Human immunodeficiency virus 1, R8, MT4; read-out: CIC95
[3] = tested on: Human immunodeficiency virus 1; experiment: Antiviral activity against HIV1 R8 harboring reverse transcriptase K103N mutant infected in human MT4 cells assessed as inhibition of viral spread in presence of 10% fetal bovine serum; type: functional; details: Human immunodeficiency virus 1, R8, MT4; read-out: CIC95
[4] = target: Human immunodeficiency virus type 1 reverse transcriptase (Human immunodeficiency virus 1, UniProt Q72547); experiment: Inhibition of wild type HIV1 reverse transcriptase by SPA assay
[5] = target: T1, Human immunodeficiency virus type 1 reverse transcriptase (Human immunodeficiency virus 1, UniProt Q72547, Y181C); experiment: Inhibition of HIV1 reverse transcriptase Y181C mutant by SPA assay
[6] = tested on: Human immunodeficiency virus 1; experiment: Antiviral activity against HIV1 R8 harboring reverse transcriptase Y181C mutant infected in human MT4 cells assessed as inhibition of viral spread in presence of 10% fetal bovine serum; type: functional; details: Human immunodeficiency virus 1, R8, MT4; read-out: CIC95
[7] = tested on: Human immunodeficiency virus 1; experiment: Antiviral activity against HIV1 R8 harboring reverse transcriptase infected in human MT4 cells assessed as inhibition of viral spread in presence of 50% normal human serum; type: functional; details: Human immunodeficiency virus 1, R8, MT4; read-out: CIC95
[8] = target: T1, Human immunodeficiency virus type 1 reverse transcriptase; experiment: Inhibition of HIV1 reverse transcriptase Y181C mutant by electrochemiluminescent assay
[9] = tested on: Human immunodeficiency virus 1; experiment: Antiviral activity against HIV1 R8 harboring reverse transcriptase K103N/Y181C double mutant infected in human MT4 cells assessed as concentration required to inhibit >95% viral spread in presence of 10% FBS; type: functional; details: Human immunodeficiency virus 1, R8, MT4; read-out: CIC95

SMILES	Ki [1]	IC95 [2]	IC95 [3]	Ki [4]	Ki [5]	IC95 [6]	IC95 [7]	Ki [8]	IC95 [9]
N#Cc1cc(Cl)cc(Oc2cc(OCc3cc(-c4ccco4)[nH]n3)ccc2Cl)c1	10 nM	97 nM	922 nM	0.3 nM	1.5 nM	833 nM	922 nM		
N#Cc1cc(Cl)cc(Oc2cc(OCc3cc[nH]n3)ccc2Cl)c1	179 nM	922 nM	8300 nM	39 nM	140 nM		8300 nM		
N#Cc1cc(Cl)cc(Oc2cc(OCc3cc(-c4ccccc4)[nH]n3)ccc2Cl)c1	2.4 nM	222 nM	924 nM	0.9 nM	12.5 nM	833 nM	924 nM		
N#Cc1cc(Cl)cc(Oc2cc(OCc3n[nH]cc3-c3ccccc3)ccc2Cl)c1	> 340 nM	8300 nM		460 nM	> 3000 nM		> 8300 nM		
N#Cc1cc(Cl)cc(Oc2cc(OCc3cc(-c4ccccc4)on3)ccc2Cl)c1	5.5 nM	926 nM	2780 nM	2.6 nM	20.4 nM	833 nM	8330 nM		
N#Cc1cc(Cl)cc(Oc2cc(OCc3cc(-c4ccccc4)no3)ccc2Cl)c1	115 nM	> 8300 nM	> 8330 nM	31 nM	763 nM		> 8300 nM		
N#Cc1cc(Cl)cc(Oc2cc(OCc3cc(-c4cccs4)[nH]n3)ccc2Cl)c1	4.6 nM	168 nM	922 nM	1.6 nM	49.5 nM	178 nM	307 nM		
Cn1cc(-c2cc(COc3ccc(Cl)c(Oc4cc(Cl)cc(C#N)c4)c3)n[nH]2)cn1	4.2 nM	32 nM	102 nM	0.7 nM		278 nM	307 nM	3 nM	
N#Cc1cc(Cl)cc(Oc2cc(OCc3cc(-c4ccccn4)[nH]n3)ccc2Cl)c1	9.6 nM	97 nM	307 nM	3.2 nM	8.9 nM	> 833 nM	307 nM		
N#Cc1cc(Cl)cc(Oc2cc(OCc3cc(-c4cccnc4)[nH]n3)ccc2Cl)c1	5.2 nM	32 nM	307 nM	1.1 nM	6.7 nM	278 nM	307 nM		
N#Cc1cc(Cl)cc(Oc2cc(OCc3cc(-c4cc[n+]([O-])cc4)[nH]n3)ccc2Cl)c1	21 nM	44 nM	307 nM	5.3 nM	46 nM	500 nM	307 nM		
N#Cc1ccc(-c2cc(COc3ccc(Cl)c(Oc4cc(Cl)cc(C#N)c4)c3)n[nH]2)cc1	3.6 nM	34 nM	307 nM	0.7 nM			922 nM	12 nM	
N#Cc1cc(Cl)cc(Oc2cc(OCc3n[nH]c(-c4ccccn4)c3Cl)ccc2Cl)c1	0.5 nM	922 nM	2770 nM	0.4 nM			922 nM	0.6 nM	
N#Cc1cc(Cl)cc(Oc2cc(OCc3n[nH]c(-c4ccncc4)c3Cl)ccc2Cl)c1	0.7 nM	97 nM	102 nM	0.5 nM		278 nM	307 nM	0.5 nM	
N#Cc1cc(Cl)cc(Oc2cc(OCc3n[nH]c(-c4ccc(-c5nnn[nH]5)cc4)c3Cl)ccc2Cl)c1	0.7 nM	2780 nM	8330 nM	0.3 nM			> 8330 nM	0.6 nM	
N#Cc1cc(Cl)cc(Oc2cc(OCc3cn(-c4ccccc4)nn3)ccc2Cl)c1	946 nM			68 nM					
N#Cc1cc(Cl)cc(Oc2cc(OCc3nc(-c4ccccc4)no3)ccc2Cl)c1	56 nM			15 nM					
N#Cc1cc(Cl)cc(Oc2cc(OCc3nc(-c4ccccn4)no3)ccc2Cl)c1	69 nM	> 8300 nM		29 nM			> 8300 nM		
COc1ccc(-c2noc(COc3ccc(Cl)c(Oc4cc(Cl)cc(C#N)c4)c3)n2)cc1	30 nM	> 8300 nM		2.1 nM			> 8300 nM		
COc1ccc(-c2nnc(COc3ccc(Cl)c(Oc4cc(Cl)cc(C#N)c4)c3)o2)cc1	9.3 nM	926 nM		5.2 nM			926 nM		
N#Cc1cc(Cl)cc(Oc2cc(OCc3nc(-c4ccc(Cl)cc4)no3)ccc2Cl)c1	130 nM	> 8300 nM		31 nM			> 8300 nM		
N#Cc1cc(Cl)cc(Oc2cc(OCc3nnc(-c4ccc(Cl)cc4)o3)ccc2Cl)c1	11 nM	2780 nM		4.9 nM			830 nM		
N#Cc1cc(Cl)cc(Oc2cc(OCc3ncc(-c4ccc(Cl)cc4)o3)ccc2Cl)c1	4.4 nM	926 nM		2.1 nM			277 nM		
O=C1Nc2ccc(Cl)cc2[C@@](C#CC2CC2)(C(F)(F)F)O1 [EFAVIRENZ]		4.3 nM	232 nM			8 nM	38 nM		272 nM
